Where two headings read alike, the source gives them in different places. Where a SMILES comes first, the peptide text is derived from it. Bridges are numbered along the chain shown (N, C = ends).

Details of data set [1]: method as in PMID 20124048, PMID 19276378. The note with it: cited from earlier work; for Stability in serum and blood: radiolabeled probes of earlier studies.
In data set [2] the target is T1, αvβ3 integrin on K562-αvβ3 cells (Homo sapiens, UniProt P05106+P06756).
T1 construct: expressed in transfected cells; host or cells: K562 leukemia cells (courtesy of S. Blystone)
As to the kind of experiment: Competition binding assay on K562-αvβ3 cells (FLAG-AgRP 7A competitor, flow cytometry). The note with it: competition with 0.5 nM FLAG-AgRP 7A, 5×10^4 K562-αvβ3 cells in IBB, 4 hr at 4 °C, anti-FLAG flow cytometry, mean of three experiments ± SD, read-out: IC50 (relative binding affinity to K562-αvβ3 cells). The source says: Competition binding assays were used to measure the relative affinities of the AgTx 7C variants and AgRP 7C to K562 leukemia cells transfected to express high levels of αvβ3 integrin [50]. […] FLAG-AgRP 7A contains an N-terminal FLAG epitope tag (DYKDDDDK), which allows detection of cell surface binding by flow cytometry using a fluorescently labeled anti-FLAG antibody.
Figure 3 Engineered AgTx 7C variants bind to K562-αvβ3 cells with similar IC50 values. Varying concentrations of AgRP 7C and AgTx 7C variants were incubated with FLAG-AgRP 7A and allowed to compete for binding to integrin receptors expressed on the surface of K562-αvβ3 cells. Representative competition binding curves are shown, and are plotted as knottin concentration versus the fraction of FLAG-AgRP 7A bound. IC50 values reported as mean of three experiments ± SD. TEXT PRINTED IN THE PICTURE: AgRP 7C: IC50 (nM): 2.2 ± 1.0 | AgTx 7C ΔR21: IC50 (nM): 2.3 ± 0.5 | AgTx 7C P22G R24I: IC50 (nM): 8.1 ± 1.6 | AgTx 7C ΔR21 P22G R24I: IC50 (nM): 5.1 ± 1.6 | AgTx 7C ΔR9: IC50 (nM): 2.5 ± 0.4
Competition binding assays were performed on K562 leukemia cells transfected to express high levels of αvβ3 integrins. Varying concentrations of AgRP 7C and AgTx variants were incubated with 5×10^4 K562-αvβ3 cells in IBB for 4 hr at 4 °C, along with a constant concentration (0.5 nM) of recombinantly expressed FLAG-AgRP 7A knottin as a competitor. FLAG-AgRP 7A binds with high affinity to αvβ3 integrin and contains an N-terminal epitope tag (DYKDDDDK), allowing cell surface binding to be detecting using an anti-FLAG antibody. Care was taken to allow adequate time for equilibrium binding and to avoid ligand depleting conditions. […] Cells were washed with BPBS and analyzed by flow cytometry on a FACSCalibur instrument (BD Biosciences), and data was quantified using FlowJo software (TreeStar). IC50 values were determined by nonlinear regression analysis using KaleidaGraph (Synergy Software). […]

Data set [3] addresses T2, αvβ3 integrins expressed on U87MG glioblastoma cells (Homo sapiens, UniProt P05106+P06756).
T2 construct: U87MG glioblastoma cells, which express high levels of αvβ3 integrin receptors; host or cells: U87MG human glioblastoma cells
In words: Competition binding assay on U87MG glioblastoma cells (FLAG-AgRP 7A competitor, flow cytometry). The note with it: competition with 5 nM FLAG-AgRP 7A, 5×10^4 U87MG cells in IBB, 4 hr at 4 °C, mean of three experiments ± SD. The text has this: For simplicity, we chose to move forward with AgTx 7C ΔR21 for in vivo molecular imaging studies. To visualize tumor targeting and tissue biodistribution, we conjugated the near-infrared dye Alexa Fluor 680 (AF680) to the N-terminal amino group of AgTx 7C ΔR21 (Fig. S3A). We also synthesized AF680-labeled versions of AgRP 7C and EETI 2.5F for comparison studies. AF680-labeled EETI RDG, which contains a scrambled integrin recognition sequence, [30], served as a non-binding control. AF680-labeled knottin peptides were purified by RP-HPLC and had the expected masses for the addition of one dye molecule (Fig. S3B, C). Competition binding assays were used to determine if AF680 conjugation affected integrin recognition. FLAG-AgRP 7A was used to compete for knottin binding to U87MG human glioblastoma cells (Fig. 4).
Figure 4 Unlabeled and AF680-labeled knottins bind U87MG cells with high affinity. […]
Competition binding assays were performed on K562 leukemia cells transfected to express high levels of αvβ3 integrins. […] Cells were washed with BPBS and analyzed by flow cytometry on a FACSCalibur instrument (BD Biosciences), and data was quantified using FlowJo software (TreeStar). IC50 values were determined by nonlinear regression analysis using KaleidaGraph (Synergy Software). […]
On the technique in general: In flow cytometry, cells or beads pass a laser one at a time.

Take `CC(C)C[C@@H]1NC(=O)[C@@H]2CSSC[C@@H]3NC(=O)[C@H]([C@@H](C)O)NC(=O)[C@H](C)NC(=O)[C@H](C)NC(=O)[C@@H]4CCCN4C(=O)[C@H](CC(=O)O)NC(=O)[C@H](CSSC[C@H](NC(=O)CN)C(=O)N[C@@H](C(C)C)C(=O)N[C@@H](CCCNC(=N)N)C(=O)N[C@@H](CC(C)C)C(=O)N[C@@H](Cc4c[nH]cn4)C(=O)N[C@@H](CCC(=O)O)C(=O)N[C@@H](CO)C(=O)N2)NC(=O)[C@H](CSSC[C@@H](C(=O)N[C@@H](CCCNC(=N)N)C(=O)O)NC(=O)[C@H](Cc2ccc(O)cc2)NC(=O)[C@@H]2CSSC[C@H](NC(=O)[C@H](Cc4ccc(O)cc4)NC3=O)C(=O)N[C@@H](Cc3ccc(O)cc3)C(=O)NCC(=O)N[C@@H](CCCNC(=N)N)C(=O)NCC(=O)N[C@@H](CC(=O)O)C(=O)N[C@@H](CC(N)=O)C(=O)N[C@@H](CC(=O)O)C(=O)N[C@@H](CC(C)C)C(=O)N[C@@H](CCCNC(=N)N)C(=O)N2)NC(=O)[C@@H]2CCCN2C(=O)[C@H](C(C)C)NC(=O)[C@H](CCC(N)=O)NC(=O)[C@H](CCC(N)=O)NC(=O)CNC1=O` [AgRP 7C] (H-GCVRLHESCLGQQVPCCDPAATCYCYGRGDNDLRCYCR-OH; disulfide 2-17, 9-23, 16-37, 25-35): the “Metabolic breakdown in the liver, kidneys, and tumor” value in data set [1] (compared to EETI 2.5F) is “higher levels of metabolic breakdown”. Also, the “Stability in serum and blood” value in data set [1] is “remarkably stable in serum and blood”.
Turning to `CC[C@H](C)[C@@H]1NC(=O)[C@@H](NC(=O)CN)CSSC[C@@H]2NC(=O)[C@@H]3CSSC[C@@H](C(=O)N[C@H](C(=O)O)[C@@H](C)O)NC(=O)[C@H](CCC(=O)O)NC(=O)[C@@H]4CSSC[C@H](NC(=O)[C@H]([C@@H](C)CC)NC(=O)[C@H](CSSC[C@H](NC(=O)[C@H](CCCNC(=N)N)NC(=O)CNC(=O)[C@H](Cc5ccc(O)cc5)NC(=O)[C@H](CC(=O)O)NC(=O)[C@H](CCC(=O)O)NC(=O)[C@H](C)NC1=O)C(=O)N[C@@H]([C@@H](C)O)C(=O)N[C@@H](Cc1c[nH]c5ccccc15)C(=O)NCC(=O)NCC(=O)N[C@@H]([C@@H](C)O)C(=O)N1CCC[C@H]1C(=O)N3)NC(=O)CNC(=O)[C@H](CCCNC(=N)N)NC(=O)CNC(=O)[C@H](CCCNC(=N)N)NC2=O)C(=O)N[C@@H](Cc1ccc(O)cc1)C(=O)NCC(=O)N[C@@H](CCCNC(=N)N)C(=O)NCC(=O)N[C@@H](CC(=O)O)C(=O)N[C@@H](CC(N)=O)C(=O)N[C@@H](CC(=O)O)C(=O)N[C@@H](CC(C)C)C(=O)N[C@@H](CCCNC(=N)N)C(=O)N4` [AgTx 7C P22G R24I] (H-GCIAEDYGRCTWGGTPCCRGRGCICYGRGDNDLRCECT-OH; disulfide 2-18, 10-23, 17-37, 25-35), the IC50 – broadly, the point on the concentration scale where inhibition reaches its midpoint – in data set [2] stood at 8.1 ± 1.6 nM.
As to `CC[C@H](C)[C@@H]1NC(=O)[C@@H](NC(=O)CN)CSSC[C@@H]2NC(=O)[C@@H]3CSSC[C@@H](C(=O)N[C@H](C(=O)O)[C@@H](C)O)NC(=O)[C@H](CCC(=O)O)NC(=O)[C@@H]4CSSC[C@H](NC(=O)[C@H]([C@@H](C)CC)NC(=O)[C@H](CSSC[C@H](NC(=O)[C@H](CCCNC(=N)N)NC(=O)CNC(=O)[C@H](Cc5ccc(O)cc5)NC(=O)[C@H](CC(=O)O)NC(=O)[C@H](CCC(=O)O)NC(=O)[C@H](C)NC1=O)C(=O)N[C@@H]([C@@H](C)O)C(=O)N[C@@H](Cc1c[nH]c5ccccc15)C(=O)NCC(=O)NCC(=O)N[C@@H]([C@@H](C)O)C(=O)N1CCC[C@H]1C(=O)N3)NC(=O)CNC(=O)CNC(=O)[C@H](CCCNC(=N)N)NC2=O)C(=O)N[C@@H](Cc1ccc(O)cc1)C(=O)NCC(=O)N[C@@H](CCCNC(=N)N)C(=O)NCC(=O)N[C@@H](CC(=O)O)C(=O)N[C@@H](CC(N)=O)C(=O)N[C@@H](CC(=O)O)C(=O)N[C@@H](CC(C)C)C(=O)N[C@@H](CCCNC(=N)N)C(=O)N4` [AgTx 7C ΔR21 P22G R24I] (H-GCIAEDYGRCTWGGTPCCRGGCICYGRGDNDLRCECT-OH; disulfide 2-18, 10-22, 17-36, 24-34), the IC50 in data set [2] turned out to be 5.1 ± 1.6 nM.
As to `CC[C@H](C)[C@@H]1NC(=O)[C@@H](NC(=O)CN)CSSC[C@@H]2NC(=O)[C@@H]3CSSC[C@@H](C(=O)N[C@H](C(=O)O)[C@@H](C)O)NC(=O)[C@H](CCC(=O)O)NC(=O)[C@@H]4CSSC[C@H](NC(=O)[C@H](CCCNC(=N)N)NC(=O)[C@H](CSSC[C@H](NC(=O)[C@H](CCCNC(=N)N)NC(=O)CNC(=O)[C@H](Cc5ccc(O)cc5)NC(=O)[C@H](CC(=O)O)NC(=O)[C@H](CCC(=O)O)NC(=O)[C@H](C)NC1=O)C(=O)N[C@@H]([C@@H](C)O)C(=O)N[C@@H](Cc1c[nH]c5ccccc15)C(=O)NCC(=O)NCC(=O)N[C@@H]([C@@H](C)O)C(=O)N1CCC[C@H]1C(=O)N3)NC(=O)[C@@H]1CCCN1C(=O)CNC(=O)[C@H](CCCNC(=N)N)NC2=O)C(=O)N[C@@H](Cc1ccc(O)cc1)C(=O)NCC(=O)N[C@@H](CCCNC(=N)N)C(=O)NCC(=O)N[C@@H](CC(=O)O)C(=O)N[C@@H](CC(N)=O)C(=O)N[C@@H](CC(=O)O)C(=O)N[C@@H](CC(C)C)C(=O)N[C@@H](CCCNC(=N)N)C(=O)N4` [AgTx 7C ΔR21] (H-GCIAEDYGRCTWGGTPCCRGPCRCYGRGDNDLRCECT-OH; disulfide 2-18, 10-22, 17-36, 24-34), the IC50 in data set [2] came out at 2.3 ± 0.5 nM; in data set [3] (unlabeled knottin, read-out: IC50, Unlabeled), 10 ± 1 nM.
On to `CC(C)C[C@@H]1NC(=O)[C@@H]2CSSC[C@@H](C(=O)NCC(=O)O)NC(=O)[C@H](Cc3ccccc3)NC(=O)CNC(=O)[C@H](CC(N)=O)NC(=O)[C@@H]3CCCN3C(=O)CNC(=O)[C@@H]3CSSC[C@H](NC(=O)[C@H]([C@@H](C)O)NC(=O)[C@H](CC(C)C)NC(=O)[C@@H]4CCCN4C(=O)[C@@H]4CCCN4C(=O)[C@H](CC(N)=O)NC(=O)[C@H](CC(=O)O)NC(=O)CNC(=O)[C@H](CCCNC(=N)N)NC(=O)[C@@H]4CCCN4C(=O)[C@H](CCCNC(=N)N)NC(=O)[C@@H]4CCCN4C(=O)[C@@H](NC(=O)CN)CSSC[C@H](NC(=O)CNC(=O)[C@H](C)NC1=O)C(=O)N[C@@H](C(C)C)C(=O)N3)C(=O)N[C@@H](CO)C(=O)N[C@@H](CCC(N)=O)C(=O)N[C@@H](CC(=O)O)C(=O)N[C@@H](CO)C(=O)N[C@@H](CC(=O)O)C(=O)N2` [EETI 2.5F] (H-GCPRPRGDNPPLTCSQDSDCLAGCVCGPNGFCG-OH; disulfide 2-24, 14-26, 20-32), for which the “Stability in serum and blood” value in data set [1] is “remarkably stable in serum and blood”.
With “AF680-labeled EETI 2.5F: EETI 2.5F with one Alexa Fluor 680 dye at the N-terminus (CPRPRGDNPPLTCKQDSDCLAGCVCGPNGFCG; Alexa Fluor 680 on N-terminal amine; 3 disulfides)”, in data set [3] (AF680-labeled knottin, read-out: IC50, AF680 labeled), the IC50 turned out to be 4 ± 0.2 nM.

The values above are taken from PMC3616073, “Engineering Agatoxin, a Cystine-Knot Peptide from Spider Venom, as a Molecular Probe for In Vivo Tumor Imaging” (PLoS ONE, 2013).
